Measured values published in ChEMBL document CHEMBL5113526, “Design, Synthesis, and Biological Evaluation of Androgen Receptor Degrading and Antagonizing Bifunctional Steroidal Analogs for the Treatment of Advanced Prostate Cancer” (J Med Chem, 2022).

Experiments:
LNCaP [1] = assay: Antiproliferative activity against human LNCAP cells assessed as reduction in cell viability at 10 uM measured after 6 days by CellTiterGlo assay relative to control; format: functional; settings: Homo sapiens, LNCaP, time 6 day
LNCaP [2] = assay: cells; settings: Homo sapiens
Description: Antiproliferative activity against human LNCAP cells assessed as reduction in cell viability measured after 6 days by CellTiter-Glo assay

Androgen receptor [3] = target: T1, Androgen receptor (Homo sapiens, UniProt P10275); assay: Induction of AR degradation in human LNCap cells incubated for 24 hrs by sandwich ELISA analysis; format: cell-based
T1 sequence (P10275 whole entry): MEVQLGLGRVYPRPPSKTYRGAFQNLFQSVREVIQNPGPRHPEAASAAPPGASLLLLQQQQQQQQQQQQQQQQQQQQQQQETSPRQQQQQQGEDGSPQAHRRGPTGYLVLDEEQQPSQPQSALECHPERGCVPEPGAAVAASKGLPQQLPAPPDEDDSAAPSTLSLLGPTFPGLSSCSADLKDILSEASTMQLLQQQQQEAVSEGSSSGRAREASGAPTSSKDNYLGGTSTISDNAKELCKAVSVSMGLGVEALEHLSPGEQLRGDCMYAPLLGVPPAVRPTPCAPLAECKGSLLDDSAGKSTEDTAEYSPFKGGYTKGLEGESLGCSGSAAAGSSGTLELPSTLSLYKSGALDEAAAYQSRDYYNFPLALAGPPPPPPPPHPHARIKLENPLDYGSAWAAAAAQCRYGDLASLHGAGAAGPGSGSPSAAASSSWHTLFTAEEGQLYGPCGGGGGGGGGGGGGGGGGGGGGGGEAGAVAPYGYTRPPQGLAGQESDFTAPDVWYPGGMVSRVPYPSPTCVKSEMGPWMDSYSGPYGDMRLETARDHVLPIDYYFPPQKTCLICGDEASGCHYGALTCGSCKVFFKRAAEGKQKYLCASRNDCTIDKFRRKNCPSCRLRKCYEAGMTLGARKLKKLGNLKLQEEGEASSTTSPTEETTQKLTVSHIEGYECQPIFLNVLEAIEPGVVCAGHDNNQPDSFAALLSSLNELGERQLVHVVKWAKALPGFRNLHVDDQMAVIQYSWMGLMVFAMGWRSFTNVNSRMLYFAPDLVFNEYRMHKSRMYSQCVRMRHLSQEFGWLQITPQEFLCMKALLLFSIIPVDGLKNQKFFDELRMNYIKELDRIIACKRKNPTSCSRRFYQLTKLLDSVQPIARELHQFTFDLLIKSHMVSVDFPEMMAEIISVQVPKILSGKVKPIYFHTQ

Androgen receptor [4] = target: T1, Androgen receptor; assay: Antagonist activity at DHT-induced Androgen receptor transcriptional activity in human HEK293 cells measured after 24 hrs by Steady-Glo reagent based assay; format: cell-based
[5] = target: T2, Steroid 17-alpha-hydroxylase/17,20 lyase (Homo sapiens, UniProt P05093); assay: Inhibition of human recombinant CYP17A1 incubated for 5 mins in presence of NADPH by LC-MS/MS analysis; format: ADME
T2 sequence (P05093 whole entry): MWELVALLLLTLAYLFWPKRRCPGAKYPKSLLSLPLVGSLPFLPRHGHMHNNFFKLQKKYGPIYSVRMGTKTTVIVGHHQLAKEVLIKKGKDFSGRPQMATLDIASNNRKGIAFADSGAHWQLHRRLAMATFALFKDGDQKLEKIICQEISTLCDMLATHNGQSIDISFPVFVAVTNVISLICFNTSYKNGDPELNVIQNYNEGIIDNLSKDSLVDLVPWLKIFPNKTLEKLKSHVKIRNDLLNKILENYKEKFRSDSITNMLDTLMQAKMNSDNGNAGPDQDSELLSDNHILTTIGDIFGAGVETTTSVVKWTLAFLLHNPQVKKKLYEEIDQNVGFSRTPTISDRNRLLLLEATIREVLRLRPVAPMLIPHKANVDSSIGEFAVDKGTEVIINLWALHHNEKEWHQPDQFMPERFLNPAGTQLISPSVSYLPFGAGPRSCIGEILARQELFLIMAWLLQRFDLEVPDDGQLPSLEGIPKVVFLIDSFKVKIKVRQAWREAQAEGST

[6] = Tmax in Sprague-Dawley rat at 10 mg/kg, po measured up to 24 hrs by LC-MS/MS analysis; format: ADME, organism-based; settings: in vivo
[7] = Terminal half life in Sprague-Dawley rat at 10 mg/kg, po measured up to 24 hrs by LC-MS/MS analysis; format: ADME, organism-based; settings: in vivo, read-out: beta t1/2 (converted)
[8] = AUC (0 to t) in Sprague-Dawley rat at 10 mg/kg, po measured up to 24 hrs by LC-MS/MS analysis; format: ADME, organism-based; design: time < 24 hrs, dose 10 mg/kg, route po; settings: in vivo
[9] = Cmax in Sprague-Dawley rat at 10 mg/kg, po measured up to 24 hrs by LC-MS/MS analysis; format: ADME, organism-based; design: dose 10 mg/kg, time < 24 hrs, route po; settings: in vivo

| SMILES | IC50 (LNCaP [2]) [µM] | inhibition at 10 µM (LNCaP [1]) [%] | also measured |
| --- | --- | --- | --- |
| C[C@]12CC[C@H](NCc3ccncc3)CC1=CC[C@@H]1[C@@H]2CC[C@]2(C)C(n3cnc4ccccc43)=CC[C@@H]12 | 2.39 | 111 | – |
| C[C@]12CC[C@H](NC(=O)c3ccnnc3)CC1=CC[C@@H]1[C@@H]2CC[C@]2(C)C(c3cncc(F)c3)=CC[C@@H]12 | 2.21 | 100 | – |
| C[C@]12CC[C@H](NC(=O)c3ccncc3)CC1=CC[C@@H]1[C@@H]2CC[C@]2(C)C(n3cnc4ccccc43)=CC[C@@H]12 | 0.763 | 104 | DC50 (Androgen receptor [3]): 3.76 µM; IC50 (Androgen receptor [4]): 1.55 µM |
| C[C@]12CC[C@H](NS(=O)(=O)c3cccnc3)CC1=CC[C@@H]1[C@@H]2CC[C@]2(C)C(n3cnc4ccccc43)=CC[C@@H]12 | 1.64 | 93.3 | – |
| C[C@]12CC[C@H](O)C[C@@H]1[C@H](NS(=O)(=O)c1cccnc1)C[C@@H]1[C@@H]2CC[C@]2(C)C(c3cccnc3)=CC[C@@H]12 | 5.43 | 100 | – |
| C[C@]12CC[C@H](NC(=O)c3ccnnc3)CC1=CC[C@@H]1[C@@H]2CC[C@]2(C)C(n3cnc4ccccc43)=CC[C@@H]12 | 0.765 | 95.9 | DC50 (Androgen receptor [3]): 4.78 µM; IC50 (Androgen receptor [4]): 1.35 µM |
| C[C@]12CC[C@H](O)C[C@@H]1[C@H](CO)C[C@@H]1[C@@H]2CC[C@]2(C)C(c3cccnc3)=CC[C@@H]12 | 2.83 | 88.5 | – |
| Cc1cn(C2=CC[C@H]3[C@@H]4CC=C5C[C@@H](NC(=O)c6ccnnc6)CC[C@]5(C)[C@H]4CC[C@]23C)cn1 | 0.466 | 97 | Tmax [6]: 4.67 h; DC50 (Androgen receptor [3]): 2.08 µM; half-life [7]: 3.58 h; AUC(0-t) at 24 h [8]: 5.62 µg·h/mL; IC50 [5]: > 3 µM; IC50 (Androgen receptor [4]): 0.244 µM; Cmax [9]: 0.802 µg/mL |
| Cn1cncc1S(=O)(=O)N[C@H]1CC[C@@]2(C)C(=CC[C@@H]3[C@@H]2CC[C@]2(C)C(n4cnc5ccccc54)=CC[C@@H]32)C1 | 7.2 | 100 | – |
| C[C@]12CC[C@H](NC(=O)c3ccnnc3)CC1=CC[C@@H]1[C@@H]2CC[C@]2(C)C(n3ccnc3)=CC[C@@H]12 | 0.383 | 92.4 | DC50 (Androgen receptor [3]): 2.76 µM; IC50 (Androgen receptor [4]): 0.981 µM |
| C[C@]12CC[C@H](O)CC1=CC[C@@H]1[C@@H]2CC[C@]2(C)C(c3cccnc3)=CC[C@@H]12 [ABIRATERONE] | 2.71 | 84.7 | IC50 [5]: 0.002 µM |
| C[C@]12CC[C@H](NC(=O)c3ccncc3)CC1=CC[C@@H]1[C@@H]2CC[C@]2(C)C(c3cncc(F)c3)=CC[C@@H]12 | 1.01 | 104 | – |
| C[C@]12CC[C@H](O)C[C@@H]1[C@H](Oc1ccncn1)C[C@@H]1[C@@H]2CC[C@]2(C)C(c3cccnc3)=CC[C@@H]12 | 3.16 | 91.3 | – |
| C[C@]12CC[C@H](NC(=O)c3cccnc3)CC1=CC[C@@H]1[C@@H]2CC[C@]2(C)C(n3cnc4ccccc43)=CC[C@@H]12 | 1.6 | 109 | – |
| C[C@]12CC[C@H](NC(=O)c3cccnc3)CC1=CC[C@@H]1[C@@H]2CC[C@]2(C)C(c3cncnc3)=CC[C@@H]12 | > 10 | – | – |
| Cc1cncc(C2=CC[C@H]3[C@@H]4CC=C5C[C@@H](NC(=O)c6ccnnc6)CC[C@]5(C)[C@H]4CC[C@]23C)c1 | 0.743 | 78.2 | DC50 (Androgen receptor [3]): 11.8 µM; IC50 (Androgen receptor [4]): 1.64 µM |
| C[C@]12CC[C@H](NC(=O)c3ccnnc3)CC1=CC[C@@H]1[C@@H]2CC[C@]2(C)C(c3cncnc3)=CC[C@@H]12 | 0.82 | 99.7 | – |
| Cc1cn(C2=CC[C@H]3[C@@H]4CC=C5C[C@@H](NC(=O)c6cccnc6)CC[C@]5(C)[C@H]4CC[C@]23C)cn1 | 0.933 | 103 | DC50 (Androgen receptor [3]): 3.58 µM; IC50 (Androgen receptor [4]): 1.28 µM |

Second part, led by results:

| IC50 (LNCaP [2]) [µM] | SMILES | inhibition at 10 µM (LNCaP [1]) [%] | also measured |
| --- | --- | --- | --- |
| 2.43 | Cc1cncc(C2=CC[C@H]3[C@@H]4CC=C5C[C@@H](NC(=O)c6cccnc6)CC[C@]5(C)[C@H]4CC[C@]23C)c1 | 90.3 | – |
| 1.39 | C[C@]12CC[C@H](NC(=O)c3cccnc3)CC1=CC[C@@H]1[C@@H]2CC[C@]2(C)C(n3ccnn3)=CC[C@@H]12 | 76.2 | – |
| 0.672 | C[C@]12CC[C@H](NC(=O)c3ccnnc3)CC1=CC[C@@H]1[C@@H]2CC[C@]2(C)C(n3ccnn3)=CC[C@@H]12 | – | DC50 (Androgen receptor [3]): 4.36 µM; IC50 [5]: > 3 µM; IC50 (Androgen receptor [4]): 9.14 µM |
| > 10 | COc1cncc(C2=CC[C@H]3[C@@H]4CC=C5C[C@@H](NC(=O)c6cccnc6)CC[C@]5(C)[C@H]4CC[C@]23C)c1 | – | – |
| 1.67 | C[C@]12CC[C@H](NC(=O)c3cccnc3)CC1=CC[C@@H]1[C@@H]2CC[C@]2(C)C(n3cncn3)=CC[C@@H]12 | 105 | – |
| 3.55 | C[C@]12CC[C@H](O)CC1=CC[C@@H]1[C@@H]2CC[C@]2(C)C(n3cnc4ccccc43)=CC[C@@H]12 [GALETERONE] | 110 | IC50 [5]: 0.016 µM |
| 0.646 | COc1cncc(C2=CC[C@H]3[C@@H]4CC=C5C[C@@H](NC(=O)c6ccnnc6)CC[C@]5(C)[C@H]4CC[C@]23C)c1 | 73.7 | DC50 (Androgen receptor [3]): 38.4 µM; IC50 (Androgen receptor [4]): 0.914 µM |
| > 10 | C[C@]12CC[C@H](O)C[C@@H]1[C@H](NS(C)(=O)=O)C[C@@H]1[C@@H]2CC[C@]2(C)C(c3cccnc3)=CC[C@@H]12 | – | – |
| 0.978 | C[C@]12CC[C@H](NC(=O)c3cscn3)CC1=CC[C@@H]1[C@@H]2CC[C@]2(C)C(n3cnc4ccccc43)=CC[C@@H]12 | 63.2 | – |
| 8.12 | CO/N=C1\C[C@@H]2[C@H](CC[C@]3(C)C(c4cccnc4)=CC[C@@H]23)[C@@]2(C)CC[C@H](O)C[C@H]12 | 100 | – |
| 0.238 | C[C@]12CC[C@H](NC(=O)c3ccnnc3)CC1=CC[C@@H]1[C@@H]2CC[C@]2(C)C(n3cncn3)=CC[C@@H]12 | 64.4 | IC50 [5]: > 3 µM |
| 1.42 | C[C@]12CC[C@H](NC(=O)c3ccncn3)CC1=CC[C@@H]1[C@@H]2CC[C@]2(C)C(n3cnc4ccccc43)=CC[C@@H]12 | 101 | – |
| 1.79 | C[C@]12CC[C@H](O)C[C@@H]1[C@@H](OS(C)(=O)=O)C[C@@H]1[C@@H]2CC[C@]2(C)C(c3cccnc3)=CC[C@@H]12 | 100 | – |
| 2.26 | Cc1noc(C)c1S(=O)(=O)N[C@H]1CC[C@@]2(C)C(=CC[C@@H]3[C@@H]2CC[C@]2(C)C(n4cnc5ccccc54)=CC[C@@H]32)C1 | 100 | – |
| 2.25 | C[C@]12CC[C@H](NC(=O)c3cccnn3)CC1=CC[C@@H]1[C@@H]2CC[C@]2(C)C(n3cnc4ccccc43)=CC[C@@H]12 | – | – |
| 2.23 | C[C@]12CC[C@H](NC(=O)c3cocn3)CC1=CC[C@@H]1[C@@H]2CC[C@]2(C)C(n3cnc4ccccc43)=CC[C@@H]12 | 95.2 | – |
